Converted amounts (≈) assume the structure as drawn.
Tests used:
C. albicans SC5314 cells = test: Mitochondrial membrane potential by Rh123; type: cell-based, Candida albicans; conditions: 0.125-1 μg/mL, 30°C, 6 h
Protocol: the fluorescent complex […] (CTF) is commonly used to indicate the intensity of microbial respiration. C. albicans SC5314 treated with 19ak was stained with 1 mM CTC for 30 min, followed by flow cytometry analysis of respiratory activity based on fluorescence intensity. Images of cells were obtained using a fluorescence microscope (IX71, Olympus, Tokyo, Japan). The Cell Counting Kit-8 (CCK-8) assay is used to measure the dehydrogenase activity in the mitochondria of C. albicans or mammalian cells. C. albicans SC5314 (5 × 10^6 cells/mL in RPMI1640 medium) were treated with different concentrations of 19ak in 96-well plates at 30°C for 12 h or 48 h. […] After an additional 2 h of incubation, OD450 in each well was detected with a microplate reader. […]
Mitochondrial isolation and detection of mitochondrial respiratory chain complex activity. […] The activities of mitochondrial respiratory chain complexes I-IV were determined by using the Micro Mitochondrial Respiratory Chain Complex Activity Assay Kit (Solarbio, Beijing, China). The concentration of protein was determined using the BCA Protein Assay Kit (Beyotime, Haimen, China).
(§1) Mitochondrial complex activity was expressed as nmol/min/mg protein. […]
Measurement of intracellular ATP production. […] Cellular protein concentrations were determined using a BCA Protein Assay Kit (Beyotime, Haimen, China). […]

C. albicans Gu5 = test: microbe, parasite or virus in culture; type: cell-based; conditions: Candida albicans, GU5
Source text: (§2) Compound library. The thiosemicarbazone derivatives Triapine and COTI-2 were purchased from Med Chem Express (MCE). The other 87 thiosemicarbazones used in this study were previously synthesized by our collaborators (1, 2). Their structures are shown in Table 1 and Table S1 to help the reader clearly understand the relationship between structure and activity.
(§3) Strains and culture conditions. Clinically derived C. albicans isolates, including G5, F5, and Gu5, were kindly provided by Professor Joachim Morschhäuser of the University of Würzburg. Other clinical C. albicans isolates were kindly donated by Professor Qingguo Qi of Shandong University and Qianfoshan Hospital of Shandong Province Other Candida strains were obtained from Jinan Central Hospital.
The zap1 mutant and its complemented strain were kindly provided by Professor Aaron P. Mitchell of Carnegie Mellon University (3). The C. neoformans strains used in this study was kindly donated by Professor Guojian Liao of Southwest University and A. fumigatus strain used in this study was provided by Professor Ling Lu of Nanjing Normal University. Before in vitro and in vivo experiments, all C. albicans strains were grown on YPD agar plates. After culturing at 30°C for 24 h, colonies of each strain were cultured in liquid YPD medium at 30°C with continuous shaking […]
(§4) Antifungal susceptibility testing. To determine in vitro antifungal activities, the microbroth dilution method was carried out in RPMI1640 medium according to the guidelines of the Clinical and Laboratory Standards Institute (4, 5). The initial concentration in RPMI1640 medium was 1 × 10^3 CFU/mL for the C. albicans and C. neoformans suspensions but 1 × 10^4 CFU/mL for A. fumigatus. The range of final drug concentrations was 0.0156–64 μg/mL. The plates were incubated at35°C for 24 […]
(§5) h (for C. albicans, C. krusei, C. tropicalis, C. parapsilosis) or 48 h (for C. neoformans, A. fumigatus). The MIC was determined based on visible growth inhibition compared with the control. All experiments were performed in duplicate. […]

A. fumigatus AF293 = test: Antifungal susceptibility testing, microbroth dilution MIC; type: cell-based; conditions: Aspergillus fumigatus, AF293; standard strain of A. fumigatus; 48 h; read-out: MIC (μg/mL) against fungi AF293
Source text: as §2, §3
(§6) The zap1 mutant and its complemented strain were kindly provided by Professor Aaron P. Mitchell of Carnegie Mellon University (3). The C. neoformans strains used in this study was kindly donated by Professor Guojian Liao of Southwest University and A. fumigatus strain used in this study was provided by Professor Ling Lu of Nanjing Normal University. […]
as §4, §5

C. neoformans H99 = test: as above; type: cell-based; conditions: Cryptococcus neoformans, H99; C. neoformans wild-type strain; 48 h; read-out: MIC (μg/mL) against fungi H99
Source text: as §2, §3, §6, §4, §5

[1] = system: mitochondrial respiratory chain complex I; test: Mitochondrial respiratory chain complex activity in isolated mitochondria; type: biochemical, Candida albicans
Protocol: (§7) Mitochondrial isolation and detection of mitochondrial respiratory chain complex activity. Mitochondria were isolated from C. albicans spheroplasts as previously described (8). A dilution series of 19ak was added to the mitochondrial suspensions to obtain final concentrations of 0, 0.125, 0.25, 0.5, and 1 μg/mL and incubated for 6 h at 30°C. The activities of mitochondrial respiratory chain complexes I-IV were determined by using the Micro Mitochondrial Respiratory Chain Complex Activity Assay Kit (Solarbio, Beijing, China). The concentration of protein was determined using the BCA Protein Assay Kit (Beyotime, Haimen, China).
as §1

[2] = system: mitochondrial respiratory chain complex III; test: as above; type: biochemical, Candida albicans; conditions: purified mitochondria, 0.125-1 μg/mL, 6 h
Protocol: as §7, §1

C/C(=N\NC(=S)N(C)C)c1ccccn1 [Compound 19ak]
Mitochondrial membrane potential (mtΔψ), Rh123 (C. albicans SC5314 cells): decrease in mtΔψ
MIC80 (C. albicans Gu5): 0.25 µg/mL (≈ 1.12 µM)
MIC (A. fumigatus AF293): 0.5 µg/mL (≈ 2.25 µM)
MIC (C. neoformans H99): 0.5 µg/mL (≈ 2.25 µM)
Reduction of NADH dehydrogenase activity with extra metal ions ([1]; 100 μM metal ions, 0.125 or 1 μg/mL 19ak): partially restored
Activity of mitochondrial respiratory chain complex I (CI, NADH dehydrogenase) ([1]; purified mitochondria, 0.125-1 μg/mL, 6 h): significantly inhibited
Activity of mitochondrial respiratory chain complex III [2]: slightly inhibited

Reference: paper PMC9241695, “Selective Metal Chelation by a Thiosemicarbazone Derivative Interferes with Mitochondrial Respiration and Ribosome Biogenesis in Candida albicans” (Microbiology Spectrum, 2022)
